Results as given in ChEMBL document CHEMBL3797079, “Synergistic reduction of HIV-1 infectivity by 5-azacytidine and inhibitors of ribonucleotide reductase” (Bioorg Med Chem, 2016).
Active and inactive are the calls of the source. The rule behind the calls is not given here.

Key:
U373-MAGI [1] = experiment: Effect on 5-aza-dCTP level in human U373-MAGI cells at 50 uM preincubated for 2 hrs followed by 5-aza-dC addition measured after 4 hrs by LC-MS/MS analysis; type: functional, cell-based
[2] = system: Human immunodeficiency virus 1; experiment: Potentiation of 5-Aza-C-induced antiviral activity against VSV-G pseudotyped HIV-1 NL4-3 infected in human U373-MAGI cells assessed as decrease in 5-Aza-C EC50 at 50 uM preincubated for 2 hrs followed by 5-Aza-C addition for 2 hrs and subsequent viral infection measured at 72 hrs post infection by flow cytometric analysis relative to control; type: functional
[3] = system: Human immunodeficiency virus 1; experiment: (§1) Potentiation of 5-Aza-C-induced antiviral activity against VSV-G pseudotyped HIV-1 NL4-3 infected in human U373-MAGI cells assessed as Gag mutation at 50 uM incubated for 4 hrs preinfection followed by 5-Aza-C addition for 2 hrs preinfection and subsequent viral infection measured at 72 hrs post infection by illumina sequencing method (reference value: 18.4%); type: functional
[4] = system: Human immunodeficiency virus 1; experiment: Antiviral activity against VSV-G pseudotyped HIV-1 NL4-3 infected in human U373-MAGI cells assessed as increase in frequency of A to C transversion at 50 uM incubated for 4 hrs prior to infection measured at 72 hrs post infection by illumina sequencing method relative to control; type: functional
U373-MAGI [5] = experiment: Increase in 5-aza-dCTP/dCTP ratio in human U373-MAGI cells at 50 uM preincubated for 2 hrs followed by 5-aza-C addition measured after 4 hrs by LC-MS/MS analysis relative to 5-aza-C; type: functional, cell-based
[6] = system: Human immunodeficiency virus 1; experiment: as §1, with “5-Aza-dC-induced” for “5-Aza-C-induced”, “Vif” for “Gag”, “19.2%)” for “18.4%)”; type: functional

With `Oc1ccc(/C=C/c2cc(O)cc(O)c2)cc1` [RESVERATROL] the Activity (U373-MAGI [1]) was “inactive”, the “fold change (FC)” value [2] was 2.5 and the Activity [3] was 15.5%. For the same compound, the “fold change (FC)” value [4] was 1.8, the Activity (U373-MAGI [5]) was “Active” and the Activity [6] was 25.1%.
